Experimental data as given in PMC12695923, “The role of N185D substitution in enhancing activity of BaqA∆C α-amylase” (Scientific Reports, 2025).

Molecular target: T1, BaqAΔC (Rossellomorea aquimaris, UniProt G8IJA7)
T1 construct: gene baqA
T1 sequence (G8IJA7 24-478): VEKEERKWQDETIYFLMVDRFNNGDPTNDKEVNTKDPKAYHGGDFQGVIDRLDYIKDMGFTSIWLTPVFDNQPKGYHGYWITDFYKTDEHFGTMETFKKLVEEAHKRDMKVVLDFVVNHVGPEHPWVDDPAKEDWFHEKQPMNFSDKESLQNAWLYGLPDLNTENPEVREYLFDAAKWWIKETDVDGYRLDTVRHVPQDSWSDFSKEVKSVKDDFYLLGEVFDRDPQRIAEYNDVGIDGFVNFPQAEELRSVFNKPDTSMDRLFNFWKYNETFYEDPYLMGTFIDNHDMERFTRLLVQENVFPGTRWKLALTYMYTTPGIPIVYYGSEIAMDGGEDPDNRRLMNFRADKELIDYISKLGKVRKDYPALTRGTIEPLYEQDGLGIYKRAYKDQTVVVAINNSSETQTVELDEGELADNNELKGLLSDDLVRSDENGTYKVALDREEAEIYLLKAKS
Experiment: intrinsic fluorescence quenching, modified Stern-Volmer plot
Format: binding
Settings: 50 mM HEPES pH 8; 15 min at 50 °C, spectra at 25 °C; n = 1.3; acarbose 15-75 mM

- Ka: 0.032 mL/mg
Compound: C[C@H]1O[C@H](O[C@H]2[C@H](O)[C@@H](O)[C@@H](O[C@H]3[C@H](O)[C@@H](O)C(O)O[C@@H]3CO)O[C@@H]2CO)[C@H](O)[C@@H](O)[C@@H]1N[C@H]1C=C(CO)[C@@H](O)[C@H](O)[C@H]1O (stereo partly shown) [acarbose]
